# Measurements published in patent US6476056B2, “Heterocycle substituted aryloxyaniline derivatives and their use as MDR ligands” (Taisho Pharmaceutical Co., Ltd., priority 1997, dated 2002).
# Target: T1, MDR (Rattus norvegicus, UniProt P16257)
# T1 construct: Crude mitochondria fractions prepared from rat cerebral cortex were used as a receptor sample; from tissue; host or cells: rat cerebral cortex, crude mitochondria fraction
# Assay: MDR receptor binding assay ([3H]PK11195 displacement)
# Conditions: 50% inhibition of [3H]PK11195 (2 nM) binding; crude mitochondria fraction from rat cerebral cortex; 4° C., 90 minutes
# Experimental: Experiment [MDR Receptor Binding Assay]
# Crude mitochondria fractions prepared from rat cerebral cortex were used as a receptor sample, and [^3H]PK11195 was used as a [^3H]-labeled ligand.
# A binding assay using the [^3H]-labeled ligand was carried out according to the following method as described in Journal of Pharmacology and Experimental Therapeutics, 262, 971(1992).
# Preparation of Receptor Sample: Rat cerebral cortex was homogenized using a Teflon-coated homogenizer in a 10 mM HEPES buffer (pH 7.4) containing 0.32 M sucrose in ten volumes of the wet weight. The homogenate was centrifuged at 900×g for 10 minutes, and the resulting supernatant was centrifuged at 9,000×g for 10 minutes. The precipitate was suspended in a HEPES buffer to give a protein concentration of 1 mg/ml, and centrifuged at 12,000×g for 10 minutes. The resulting precipitate was suspended in a 50 mM HEPES buffer (pH 7.4) to give a crude mitochondria fraction.
# MDR Binding Assay: Mitochondria sample (1.0 mg protein/ml), [^3H]PK11195 (2 nM) and the test drug were reacted at 4° C. for 90 minutes. After completion of the reaction, the reaction mixture was filtered with suction through a glass filter (GF/B) treated with 0.3% polyethyleneimine, and the radioactivity on the filter was measured by a liquid scintillation spectrometer.
# The binding at the reaction in the presence of 10 μM PK11195 was defined as non-specific binding of [3H]PK11195, and the difference between total binding and non-specific binding was defined as specific binding.
row,Structure (SMILES),IC50 [nM]
1,COc1ccc(OC)c(CN(C(C)=O)c2ccccc2Oc2ccccc2)c1 [Compound 017],0.085
2,CNC(=O)N(Cc1ccccc1OC(C)C)c1ccccc1Oc1ccccc1 [Compound 093],0.87
3,COc1ccccc1CN(C(C)=O)c1cc(Cl)ccc1Oc1ccccc1 [Compound 121],2.01
4,COc1ncccc1CN(C(C)=O)c1ccccc1Oc1ccccc1 [Compound 061],0.498
5,"COc1ccccc1CN(C(=O)COC(C)=O)c1ccccc1Oc1ccccc1 [Compound 082, N-acetoxyacetyl-N-(2-methoxybenzyl)-2-phenoxyaniline]",8.9
6,COc1ccccc1CN(C(C)=O)c1cc(F)ccc1Oc1ccccc1 [Compound 117],0.792
7,"COc1ccccc1CCN(C(C)=O)c1ccccc1Oc1ccccc1 [Compound 012, N-Acetyl-N-[2-(2-methoxyphenyl)ethyl]-2-phenoxyaniline]",0.453
8,COc1ccccc1CN(C(C)=O)c1ccccc1Oc1ccccc1C [Compound 100],0.112
9,COc1cccc(CN(C(C)=O)c2ccccc2Oc2ccccc2)c1 [Compound 001],1.38
10,"CC(=O)N(Cc1ccccc1Cl)c1ccccc1Oc1ccccc1 [Compound 029, N-Acetyl-N-(2-chlorobenzyl)-2-phenoxyaniline]",0.486
11,"COC(=O)N(Cc1ccccc1OC)c1ccccc1Oc1ccccc1 [Compound 098, N-(2-Methoxybenzyl)-N-methoxycarbonyl-2-phenoxyaniline]",0.498
12,COc1ccc(CN(C(C)=O)c2ccccc2Oc2ccccc2)cc1 [Compound 002],0.658
13,CC(=O)N(Cc1ccccc1C)c1ccccc1Oc1ccccc1 [Compound 049],4.23
14,COc1ccccc1CN(C(C)=O)c1cc(C)ccc1Oc1ccccc1 [Compound 124],0.343
